Patent publication US6265423A, “Aromatic polycyclic retinoid-type derivatives, method for preparing same, and use thereof for making pharmaceutical and cosmetic compositions” (priority 1996, dated 2001)
Entries after “also recorded” stand apart in the source; their conditions may differ.

Columns and labels:
[1] = test system: A549 human pulmonary cancer cells; test: MTT test, proliferation of A549; type: cell-based; conditions: MTT test
[2] = test system: human mammary tumoral lineage T-47D; test: Clonogenic test (soft agar), growth of cellular colonies; type: cell-based; conditions: T-47D, soft agar
Description: The human tumour stem cells are the clonogenic cells which are the origin of the neoplasic cells which constitute a given tumour. These tumour stem cells are responsible for the recidivism process observable after surgical resection of the primary tumours and are also responsible for the formation of metastases. […] At the level of a tumour or of a tumoral cellular lineage, these clonogenic stem cells distinguish themselves from other clonogenic cells of the tumour or of the neoplasic cellular lineage being considered, by the fact that they preserve their ability to proliferate in the absence of any solid support.
This technique is suitable for the culturing in vitro of most of the tumours and tumoral cellular lineages of various histological types. In the context of this test, the neoplastic cells are cultured on a semi-solid culture medium "soft agar" made up of a mixture of agar and agarose. On this selective support, only tumoral stem cells survive and proliferate. […] The morphological characteristics and the growth of the cellular colonies are also a function of the histological type of the tumours being considered.
These culture conditions are also called "anchorage-independent" conditions.
The base medium "MEM 25 MM HEPES" (Minimum Essential Medium, Life Technologies, Belgium) contains Eagle salts but no L-glutamine. This medium is well suited to the growth of a range of varied diploid cells or primary mammal cells. To this medium is then added:
The tumoral cells are maintained in culture in 25 cm^2 falcon dishes (Life Technologies, Belgium). They are then trypsinised and individualised. Their rate of viability is determined by coloration with trypan blue (Sigma, Belgium). It must be greater than 90%. In the case where this condition is kept to, a cellular suspension at the desired concentration is prepared in a solution of agar at 0. 3%. The cells are then seeded between two layers of agar (Sigma, Belgium) and in 35 mm Petri dishes (Life Technologies, Belgium). The base layer is made up of a 0.5% solution of agar and the top layer is made up of a 0.3% solution of agar. The cupules are then positioned and held in an incubator at 37° C. and 5% of CO2. […] After treatment, the cupules are kept in the incubator for 21 days. It is advisable to examine, during the course of the experiment, the appearance and the increase of the cellular colonies. If after 10 days, no colony appears or is developing, the experiment must be repeated. In the contrary case, on the 21st day, 100 μl of an MTT solution (3-(4,5-dimethylthiazol-2-yl)-2,5 diphenyl tetrazolium bromide; Sigma, Belgium) dissolved in the RPMI culture medium (Roswell park Memorial Institute, Life Technologies, Belgium), at the concentration of 1 mg/ml are deposited on the top layer of the group of cupules. The cells are kept in contact with this solution for a minimum of 3 hours at 37° C.
Using an inverted microscope at low magnification, the number of clones whose surface area is greater thar. 100 μm^2 is determined for the group of cupules representing all the different experimental conditions. Then, for each of these experimental conditions, the mean number of cellular colonies±the standard error on the mean (ESM) is calculated.
The mean number of cellular colonies determined for each experimental condition is expressed as a percentage in relation to the control condition made equal to 100%.

Gal4-RARβ = test: Transactivation, chimerical receptor Gal4-RARβ (transitory transfection of HeLa); type: cell-based; conditions: 100% = TTNPB 10^-8 M
Gal4-RARγ = test: Transactivation, chimerical receptor Gal4-RARγ (transitory transfection of HeLa); type: cell-based; conditions: 100% = TTNPB 10^-8 M
RARβ-ERcassette = test: Transactivation, chimerical receptor RARβ-ERcassette (HeLa); type: cell-based; conditions: TTNPB 10^-8 M = 100
Description: (§1) The HeLa cells are co-transfected by a plasmid which codes for a retinoic receptor in which the C domain of bonding to the DNA is substituted by that of the receptor to RE oestrogens, and a plasmid which places the expression of the luciferase under the control of an ERE (Element of Response to Oestrogens). The expressed chimerical receptors are designated as RARα-ERcassette, RARβ-ERcassette, RARγ-ERcassette and RXRα-ERcassette. The A, B, D, E and F regions of the natural receptor are preserved as well as the transcriptional co-operation between the activation domains AF-1 and AF-2. These transitory transfection experiments follow the method of co-precipitation to calcium phosphate. The HeLa cells are co-transfected by […] of plasmid coding for the chimerical receptor, […] of reporter plasmid and […] of expression vector CMV-β-galactosidase used as an internal control of transfection. 24 hours after the transfection, the cells are incubated for 16 hours with the different effectors.
(§2) In this type of chimerical receptor, the C domain of bonding to the DNA of RAR is substituted by that of the receptor to the RE oestrogens. The protein obtained is close to the natural RAR receptor and preserves the transcriptional properties of the AF-1 and AF-2 domains. It modulates the transcription by means of an ERE. This RAR-ERcassette model allows one to observe a transcriptional response to a more physiological ligand.

T-47D cells = test: Effect on oestrogen-induced proliferation of T-47D cells; type: cell-based, human; conditions: estradiol 10^-9 M
Experimental: (§3) MCF-7 cells and HeLa are cultivated in DMFM with phenol red to which 5% foetal calf serum is added. The T47-D cells are cultivated in RPMI to which 10% foetal calf serum is added. The experimental tests are carried out in DMEM without phenol red to which foetal calf serum treated with dextran carbon is added at 3%. […] The experiments using the different retinoids are carried out sheltered from the light so as to avoid any isomerisation.
So as to test the anti-proliferation effect of the retinoids, growth experiments under oestrogenic conditions were carried out on cells MCF-7 and T-47D. These are the human oestrogen-dependent mammary cancer cells which express the receptor to RE oestrogens. The effect of the molecules is evaluated after 7 days of culture in oestrogenic conditions (estradiol 10^-9 M) by dosing the cellular DNA. The cells are distributed in 24 well plates at a density of 2×10^4 cells per well. The tests with the different retinoids are carried out in triplicate and the culture medium is changed after 4 days of growth.

MCF-7 cells = test: Effect on oestrogen-induced proliferation of MCF-7 cells; type: cell-based, human; conditions: estradiol 10^-9 M
Experimental: MCF-7 cells and HeLa are cultivated in DMFM with phenol red to which 5% foetal calf serum is added. […] The experimental tests are carried out in DMEM without phenol red to which foetal calf serum treated with dextran carbon is added at 3%. […] The experiments using the different retinoids are carried out sheltered from the light so as to avoid any isomerisation.

[3] = test system: RARE, endogenic RAR and RXR receptors, HRL+N lineage; test: HRL+N transactivation (RARE-luciferase, stably transfected HeLa); type: cell-based
Experimental: as §3
(§4) Certain properties of the retinoids have been determined using more developed cellular models. These models consist of cellular lineages transfected in a stable fashion by recombinant plasmids which place the expression of the gene of the luciferase under the control of different nuclear response elements. […] The tests carried out in duplicate are described below for each of these models.
The cellular lineages HRLN and HRL+N allow one to study the activation of an RARE by endogenic receptors using ligands at physiological concentrations. These lineages derive from HeLa cells transfected in a stable fashion by a reporter gene which places the expression of the gene of the luciferase under the control of a nuclear response element RARE (RARE3 -tk-Luc). The HeLa cells express all the known receptors of the retinoic acid (RARα,β,γ and RXRα,β,γ) with a predominance of RARα and RXRα. The response element RARE used for the HRLN cells corresponds to the sequence of the natural gene of the RARβ receptor (GGTTCAnnnnnAGTTCA). The HRL+N cells comprise the sequence GAGTGAnnnnnCGGTGA.
The HRL+N lineage allows one to visualise a co-activation of the RAR and RXR receptors at the level of the RAR-RXR hetero-dimer.

[4] = test system: AP-1, MTLN lineage (MCF-7); test: Anti-AP-1 effect, MTLN lineage activated by TPA; type: cell-based, human; conditions: TPA-activated MTLN cells
Experimental: as §4
The anti-factor AP-1 transrepressor effect of retinoids is determined using the MTLN lineage, coming from MCF-7 cells transfected in a stable fashion by a vector p(TRE)3 -tk-Luc which places the expression of the gene of luciferase under the control of […]. TPA activates the AP-1 complex formed from proteins of the family of nuclear proto-oncogenes (c-Jun and c-Fos). […] The experiments are made with the MTLN cells activated by 10^-7 M TPA.
The effect of the compounds on the MTLN cells activated by 10^-7 M TPA is expressed as a percentage. […] The inhibitive properties of the products are calculated after deduction of the base activity of the cells. The percentages reported correspond to a range of inhibitions determined from several experiments.

[5] = test system: RAR-ERcassettes (RARα, RARβ, RARγ); test: Chimerical receptors RAR-ERcassettes, overall profile; type: cell-based
Description: as §1, §2

C=C(c1ccc(C(=O)O)cc1)c1cc2c(cc1C)C(C)(C)CCC2(C)C [LGD1069, reference compound]
effect on cellular increase, A549 (in words) [1]: induces a stimulation of the proliferation of the A549 cells at 10^-6 M and 10^-8 M | effect on growth of cellular colonies (in words) [2]: strongly and significantly inhibits the growth of cellular colonies of the T-47D lineage | GAL4-RAR RARβ transactivation (Gal4-RARβ; 10^-7 M): 5% | GAL4-RAR RARβ transactivation (Gal4-RARβ; 10^-8 M): 1% | GAL4-RAR RARγ transactivation (Gal4-RARγ; 10^-6 M): 29% | GAL4-RAR RARγ transactivation (Gal4-RARγ; 10^-7 M): 8% | GAL4-RAR RARγ transactivation (Gal4-RARγ; 10^-8 M): 1% | RAR-ERcassette RARβ transactivation (RARβ-ERcassette; 10^-6 M): 237% | RAR-ERcassette RARβ transactivation (RARβ-ERcassette; 10^-7 M): 194% | effect on oestrogen-induced growth, T-47D (in words) (T-47D cells): exerts no effect whatsoever on the growth of MCF-7 and T-47D cells in oestrogenic conditions | effect on oestrogen-induced growth, MCF-7 (in words) (MCF-7 cells): exerts no effect whatsoever on the growth of MCF-7 and T-47D cells in oestrogenic conditions | HRL+N transactivation (in words) [3]: induce a stronger transactivation with the HRL+N cells; also recorded: behaves as a panagonistic molecule | anti-AP-1 effect (in words) [4]: causes an inhibition of the AP-1 route; also recorded: the most effective compound tested in this model | RAR-ERcassette profile (in words) [5]: transcriptional power appears higher notably through the RARβ-ERcassette; also recorded: permits a co-activation of RAR and RXR, bringing about an over-activation of the hetero-dimer in comparison with the specific RAR activation of TTNPB
